The values below come from publication PMC12030062, “From In Vitro Cytotoxicity to In Vivo Zebrafish Assays: A Study on 3,3-Dichloro β-, γ- and δ-Lactams and Their Biological Activity Profiles” (Pharmaceuticals, 2025).

In brackets after ≈: the same amount, converted by molar mass. Like-named read-outs stand apart in the source and are kept apart here. Bounds are passed on as bounds.

Broadly, the IC50 is the concentration at which inhibition is half-maximal.

One data set relates to Zebrafish. Particulars: cited from earlier work.
In a further data set the test system is human erythrocytes. Nature of the data set: Hemolysis assay with human erythrocytes. Format: cell-based. Particulars: from 10 to 80 µg/mL. How it is done:
(§1) In this context, non-hemolytic compounds are essential, as they enhance the safety and efficacy of lactam-based drugs by reducing adverse effects while maintaining their antitumor activity. In accordance with EU regulations (ISO 10993-4), the assessment of the biological compatibility of new compounds that may come into contact with the blood necessitates in vitro hemocompatibility evaluations. In this study, the extent of hemolysis induced by the different compounds was assessed by incubating them with an erythrocyte suspension. The hemolytic response of compounds 1–10 was evaluated at two concentrations (10 and 80 µg/mL), the results of which are presented in Figure 3.
(§2) • In Vitro Assay Using Human Erythrocytes • - Acquisition and Extraction of the Erythrocytes Human blood samples were obtained from the Banc de Sang i Teixits de Barcelona (Spain) from the Catalan Department of Health. Blood was deposited in tubes with the anticoagulant EDTA-K3. Blood samples were centrifuged at 3000 rpm and 4 °C for 10 min (Megafuge 2.0 R. Heraeus Instruments, Hanau, Germany) to induce sedimentation. Plasma was extracted with a Pasteur pipette. Next, the residual pellet was washed with PBS at pH 7.4. This procedure was repeated three times to remove residual leukocytes and platelets and to concentrate the erythrocytes. Following the last wash, the erythrocyte suspension was diluted (1:1) in PBS at pH 7.4 to obtain a suitable erythrocyte suspension (cell density of 8 × 10^9 cell/mL). • - Hemolysis Assay The hemolysis assay determined the capability of different compounds to induce the hemolysis of the erythrocyte membrane. Stock solutions of each compound at 1 mg/mL in PBS at pH 7.4 were prepared. Different volumes (10–80 μL) were placed in polystyrene tubes, and an aliquot of 25 µL of the erythrocyte suspensions was added to each tube. The final volume was 1 mL. The tubes were incubated at room temperature under rotatory conditions. Then, the tubes were centrifuged at 10,000 rpm for 5 min. The supernatants’ absorbance at 540 nm (Shimadzu UV-160A, Shimadzu, Duisburg, Germany) was compared with that of the positive (erythrocytes hemolyzed with distilled water) and negative (erythrocyte suspension in PBS at pH 7.4) controls. The degree of hemolysis was determined using the following equation: Hemolysis (%) = 100 × (Abs − Abs0)/(Abs100 − Abs0) where Abs, Abs0, and Abs100 are the absorbance of the test samples, of the suspension treated with isotonic phosphate–buffered saline (PBS), and of the suspension of complete hemolysis treated with distilled water, respectively. • In Vitro Essay Using Cell Cultures The murine Swiss albino fibroblasts (3T3) and the squamous cell carcinoma (A431) cell lines were obtained from Celltec UB. Cells were grown in DMEM medium (4.5 g/L glucose) supplemented with 10% (v/v) FBS, 2 mM L-glutamine, 100 U/mL penicillin, and 100 µg/mL streptomycin at 37 °C with 5% CO2. Cells were routinely cultured in 75 cm^2 culture flasks and were trypsinized using trypsin–EDTA when the cells reached approximately 80% confluence. The trypan blue assay, which allows for the direct identification and enumeration of the live (unstained) and dead (blue) cells in the cell population, was used to evaluate the viability of the cells in the cell suspension obtained. • - Cell Viability Assays Cell lines of 3T3 (1 × 10^5 cells/mL) and A431 (5 × 10^4 cells/mL) were grown at defined densities in the 60 central wells of a 96-well plate. The cells were incubated for 24 h in 5% CO2 at 37 °C. Then, the spent medium was removed, and the cells were incubated for 24 h, with their corresponding compound solutions (1 mg/mL) previously diluted in a minimum amount of DMF (dimethylformamide) and then in DMEM medium supplemented with 5% FBS (100 µL) at the required concentration range (80 or 250 µg/mL). […]

For data set [1], the system named is A431 cell line (squamous cell carcinoma). Nature of the data set: Cell viability, MTT assay, A431. The conditions noted are these: for IC50: Homo sapiens; for SI250, pseudo-selectivity index (MTT): 250 µg/mL, 24 h, A431 vs 3T3, MTT; for selective cytotoxicity, A431 in comparison with 3T3 cells: lower IC50 for A431 than 3T3; for SI (MTT), selectivity index: SI = IC50 (3T3)/IC50 (A431). Format: cell-based. How it is done:
(§3) Two different endpoints, 3-(4,5-dimethyl-2-thiazolyl)-2,5-diphenyltetrazolium bromide (MTT) and neutral red uptake (NRU), were used to assess differences in cell-induced cytotoxicity. […] In addition, NRU evaluates the interaction of these drugs with the plasmatic membrane. Cell responses were determined from the MTT [16] and NRU [17] assays, using the two proposed cell lines. Cytotoxicity assays were performed at concentrations equal to 80 and 250 µg/mL. The IC50 value, referring to the half-maximal inhibitory concentration, was determined as a key parameter in cytotoxicity studies (Table 1). It plays a crucial role in evaluating cell viability and assessing cellular responses to various drugs or toxins. For cases where IC50 values were below 80 µg/mL, additional studies at lower concentrations were conducted to accurately determine these values. […] The selectivity index (SI), used as a measurement of action against the tumor cell line in comparison with a normal cell line, was also included.
as §2, with “°C.” for “°C. Then, the spent medium was removed, and the cells were incubated for 24 h, with their corresponding compound solutions (1 mg/mL) previously diluted in a minimum amount of DMF (dimethylformamide) and then in DMEM medium supplemented with 5% FBS (100 µL) at the required concentration range (80 or 250 µg/mL).”
In general terms: Tetrazolium assays rely on reduction of a dye to a coloured formazan, in cell work by metabolically active cells.

The subject of data set [2] is murine Swiss albino fibroblast (3T3) cell line. Nature of the data set: Cell viability, MTT assay, 3T3. The format is cell-based. The conditions noted are these: Mus musculus, 24 h, 24 h incubation, MTT endpoint. The procedure: as §3
as §2, with “°C.” for “°C. Then, the spent medium was removed, and the cells were incubated for 24 h, with their corresponding compound solutions (1 mg/mL) previously diluted in a minimum amount of DMF (dimethylformamide) and then in DMEM medium supplemented with 5% FBS (100 µL) at the required concentration range (80 or 250 µg/mL).”

Data set [3] relates to A431 cell line (squamous cell carcinoma). Nature of the data set: Cell viability, NRU assay, A431. The format is cell-based, human. The conditions noted are these: for IC50: Homo sapiens, A-431, 24 h, 24 h incubation, NRU endpoint, A431; for SI250, pseudo-selectivity index (NRU): 250 µg/mL, 24 h, A431 vs 3T3, NRU. How it is done: as §3
as §2, with “°C.” for “°C. Then, the spent medium was removed, and the cells were incubated for 24 h, with their corresponding compound solutions (1 mg/mL) previously diluted in a minimum amount of DMF (dimethylformamide) and then in DMEM medium supplemented with 5% FBS (100 µL) at the required concentration range (80 or 250 µg/mL).”

Data set [4] relates to murine Swiss albino fibroblast (3T3) cell line. Nature of the data set: Cell viability, NRU assay, 3T3. Format: cell-based. Particulars: Mus musculus, 24 h incubation, NRU endpoint. The procedure: as §3
as §2, with “°C.” for “°C. Then, the spent medium was removed, and the cells were incubated for 24 h, with their corresponding compound solutions (1 mg/mL) previously diluted in a minimum amount of DMF (dimethylformamide) and then in DMEM medium supplemented with 5% FBS (100 µL) at the required concentration range (80 or 250 µg/mL).”

The nature of data set [5]: Hemolysis assay with human erythrocytes. Particulars: human, washed human erythrocyte suspension, pH 7.4, read-out: degree of hemolysis. The format is cell-based. How it is done:
as §1, §2

[6] abbreviates: A-431, 24 h, 24 h incubation, MTT endpoint, A431, read-out: IC50 (MTT) A431.
Setting [7] is: A-431, A431 and 3T3, MTT and NRU, summarised in text, read-out: IC50 values.

As to `COc1cccc2c1C(=O)c1c(O)c3c(c(O)c1C2=O)C[C@@](O)(C(=O)CO)C[C@@H]3O[C@H]1C[C@H](N)[C@H](O)[C@H](C)O1` [doxorubicin], the acute toxicity in the data set with Zebrafish (Zebrafish embryos) is 5.6 µg/mL.

Turning to `CC1CN(C(C)(C)C)C(=O)C1(Cl)Cl` (stereo not shown) [Compound 4], in the data set with human erythrocytes, the “change of hemolytic response as concentration increased” value (from here on “change … as concentration increased”) is listed as “remained stable”. For the same molecule, the IC50 in data set [1] (setting [6]), in data set [2], in data set [3] and in data set [4] was over 250 µg/mL in each case.

In the case of `C=C(Br)CN1CC(C)C(Cl)(Cl)C1=O` (stereo not shown) [Compound 5], the IC50 is 250 ± 1.32 µg/mL (≈ 871 µM) in data set [1] (setting [6]); over 250 µg/mL in data set [1] (setting [7]); over 250 µg/mL in data set [2]; over 250 µg/mL in data set [3]; 250 µg/mL (≈ 871 µM) in data set [4].

In the case of `CC(=O)O[C@H]1C(=O)[C@@]2(C)[C@H]([C@H](OC(=O)c3ccccc3)[C@]3(O)C[C@H](OC(=O)[C@H](O)[C@@H](NC(=O)c4ccccc4)c4ccccc4)C(C)=C1C3(C)C)[C@]1(OC(C)=O)CO[C@@H]1C[C@@H]2O` [taxol], the acute toxicity in the data set on Zebrafish (Zebrafish) is reported as 1.05 µg/mL.

Take `CC(C)(C)N1C(=O)[C@@H](Cl)[C@@H]2[C@H](Cl)CCC[C@@H]21` [Compound 3]: the hemolysis at 10 µg/mL in data set [5] came out at 0.1%. The “change … as concentration increased” value in the data set with human erythrocytes is recorded as “doubled”. Besides, the IC50 is 250 ± 2.11 µg/mL (≈ 946 µM) in data set [1] (setting [6]), 183 ± 3.11 µg/mL (≈ 694 µM) in data set [2], over 250 µg/mL in data set [3] and over 250 µg/mL in data set [4]. For the same molecule, the “SI250, pseudo-selectivity index (NRU)” value in data set [3] is on record as “highest SI250 values”.

`CC1CCN(C(C)(C)C)C(=O)C1(Cl)Cl` (stereo not shown) [Compound 9]: the hemolysis at 10 µg/mL in data set [5] was 0.1%. In data set [5] (80 µg/mL), the hemolysis at 80 µg/mL is about 0.7%. The “change … as concentration increased” value in the data set with human erythrocytes is “fivefold”. In data set [1], the “SI250, pseudo-selectivity index (MTT)” value is “above 1.5”. Further, the concentration for half-maximal inhibition (IC50) in data set [1] (setting [6]) was 242.9 ± 1.78 µg/mL (≈ 1020 µM); in data set [2] it was over 250 µg/mL; in data set [3] it was over 250 µg/mL; in data set [4] it was over 250 µg/mL. Moreover, the “selective cytotoxicity, A431 in comparison with 3T3 cells” value (“selective cytotoxicity, A431” below) in data set [1] is “some selective cytotoxicity”.

For the molecule `CC(C)(C)N1CC(C)(C)C(Cl)(Cl)C1=O` [Compound 7], the “change … as concentration increased” value in the data set with human erythrocytes is “remained stable”. The “SI250, pseudo-selectivity index (MTT)” value in data set [1] is listed as “above 1.5”. For the same molecule, the IC50 was 230 ± 2.54 µg/mL (≈ 967 µM) in data set [1] (setting [6]), over 250 µg/mL in data set [2], over 250 µg/mL in data set [3] and over 250 µg/mL in data set [4]. Moreover, in data set [1], the “SI (MTT), selectivity index” value is recorded as over 1.08. The “selective cytotoxicity, A431” value in data set [1] is given as “some selective cytotoxicity”.

Turning to `CC1CN(C2CCC(=O)CC2)C(=O)C1(Cl)Cl` (stereo not shown) [Compound 6], the “change … as concentration increased” value with human erythrocytes is listed as “remained stable”. Moreover, the IC50 in data set [1] (setting [6]), in data set [2], in data set [3] and in data set [4] was over 250 µg/mL each time. For the same molecule, the “SI250, pseudo-selectivity index (NRU)” value in data set [3] is recorded as “highest SI250 values”.

Consider `O=C1N(Cc2ccccc2)[C@H]2CCC[C@H](C2)C1(Cl)Cl` [Compound 10], for which the hemolysis at 10 µg/mL in data set [5] was 0.02%. In the data set on human erythrocytes, the “change … as concentration increased” value is “remained stable”. The IC50 in data set [1] (setting [6]) is 238.3 ± 1.56 µg/mL (≈ 799 µM); in data set [2] it was over 250 µg/mL; in data set [3] it was over 250 µg/mL; in data set [4] it was over 250 µg/mL. Besides, in data set [1], the “selective cytotoxicity, A431” value is reported as “some selective cytotoxicity”. Also, the “SI250, pseudo-selectivity index (NRU)” value in data set [3] was “highest SI250 values”.

`CC(C)(C)N1C(=O)[C@@H](Cl)[C@@H]2CCCC[C@@H]21` [Compound 8]: in data set [5], the hemolysis at 10 µg/mL turned out to be 0.1%. Further, the “change … as concentration increased” value in the data set on human erythrocytes is “doubled”. Also, the IC50 in data set [1] (setting [6]) was 250 ± 1.78 µg/mL (≈ 1090 µM); in data set [1] (setting [7]), over 250 µg/mL; in data set [2], over 250 µg/mL; in data set [3], over 250 µg/mL; in data set [4], over 250 µg/mL. For the same molecule, in data set [1], the “SI (MTT), selectivity index” value was over 1.0.
